Laboratory results: ChEMBL document CHEMBL4507291 (2021)

Columns and labels:
[1] = target: T1, MAP/microtubule affinity-regulating kinase 4 (Homo sapiens) (UniProt Q96L34)
T1 sequence (whole entry): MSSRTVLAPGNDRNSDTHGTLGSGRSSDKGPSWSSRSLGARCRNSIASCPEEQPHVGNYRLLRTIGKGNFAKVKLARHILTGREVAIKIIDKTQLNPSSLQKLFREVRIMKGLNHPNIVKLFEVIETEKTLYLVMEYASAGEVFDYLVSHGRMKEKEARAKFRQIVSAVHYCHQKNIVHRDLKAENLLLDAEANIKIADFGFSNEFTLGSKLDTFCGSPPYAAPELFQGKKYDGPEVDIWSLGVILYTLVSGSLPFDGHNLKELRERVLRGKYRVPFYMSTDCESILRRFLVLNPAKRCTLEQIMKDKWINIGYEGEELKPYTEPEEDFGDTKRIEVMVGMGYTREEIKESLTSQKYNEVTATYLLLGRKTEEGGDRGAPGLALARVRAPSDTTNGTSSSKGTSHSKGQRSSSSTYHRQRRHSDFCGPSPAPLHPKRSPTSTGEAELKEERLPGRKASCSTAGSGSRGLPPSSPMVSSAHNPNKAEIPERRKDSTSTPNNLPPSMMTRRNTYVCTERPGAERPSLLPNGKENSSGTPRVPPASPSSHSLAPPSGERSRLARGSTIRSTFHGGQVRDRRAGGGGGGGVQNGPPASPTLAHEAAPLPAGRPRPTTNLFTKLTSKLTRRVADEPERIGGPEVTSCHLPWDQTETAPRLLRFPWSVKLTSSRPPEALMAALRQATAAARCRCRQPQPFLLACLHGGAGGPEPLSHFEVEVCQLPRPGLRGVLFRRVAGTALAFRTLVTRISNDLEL

[2] = target: Serine/threonine-protein kinase 10 (Homo sapiens) (UniProt O94804)
[3] = target: Mitogen-activated protein kinase 4 (Homo sapiens) (UniProt P31152)
[4] = test system: Epidermal growth factor receptor (Homo sapiens), P00533 [L858R]
[5] = target: Serine/threonine-protein kinase PAK 1 (Homo sapiens) (UniProt Q13153)
[6] = target: T2, Mitogen-activated protein kinase 13 (Homo sapiens) (UniProt O15264)
T2 sequence (whole entry): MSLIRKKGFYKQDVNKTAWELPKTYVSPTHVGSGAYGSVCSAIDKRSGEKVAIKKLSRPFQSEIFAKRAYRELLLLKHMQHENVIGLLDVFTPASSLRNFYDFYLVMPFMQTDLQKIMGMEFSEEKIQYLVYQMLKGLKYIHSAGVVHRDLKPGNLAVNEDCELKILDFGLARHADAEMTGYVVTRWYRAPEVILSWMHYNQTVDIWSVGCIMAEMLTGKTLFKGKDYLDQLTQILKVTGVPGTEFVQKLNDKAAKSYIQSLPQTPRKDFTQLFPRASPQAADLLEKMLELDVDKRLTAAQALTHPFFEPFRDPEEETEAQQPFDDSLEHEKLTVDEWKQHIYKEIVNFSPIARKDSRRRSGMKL

[7] = target: Calcium/calmodulin-dependent protein kinase type 1D (Homo sapiens) (UniProt Q8IU85)
[8] = target: T3, Serine/threonine-protein kinase Chk1 (Homo sapiens) (UniProt O14757)
T3 sequence (whole entry): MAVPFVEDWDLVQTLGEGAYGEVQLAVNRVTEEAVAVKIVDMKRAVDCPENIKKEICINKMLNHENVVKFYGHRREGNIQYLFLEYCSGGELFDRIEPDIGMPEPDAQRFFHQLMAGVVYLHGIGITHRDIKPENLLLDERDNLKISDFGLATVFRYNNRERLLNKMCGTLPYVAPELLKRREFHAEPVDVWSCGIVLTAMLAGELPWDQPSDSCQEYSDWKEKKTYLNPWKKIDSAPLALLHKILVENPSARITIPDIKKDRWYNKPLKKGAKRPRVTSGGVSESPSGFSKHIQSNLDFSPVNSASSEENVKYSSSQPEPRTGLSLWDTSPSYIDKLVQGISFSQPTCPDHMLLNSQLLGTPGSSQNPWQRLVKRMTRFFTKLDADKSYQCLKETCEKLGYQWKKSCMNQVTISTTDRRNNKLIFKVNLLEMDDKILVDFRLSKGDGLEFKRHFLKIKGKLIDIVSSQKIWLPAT

[9] = target: Serine/threonine-protein kinase RIO3 (Homo sapiens) (UniProt O14730)
[10] = target: Serine/threonine-protein kinase MRCK gamma (Homo sapiens) (UniProt Q6DT37)
[11] = target: T4, Serine/threonine-protein kinase D3 (Homo sapiens) (UniProt O94806)
T4 sequence (whole entry): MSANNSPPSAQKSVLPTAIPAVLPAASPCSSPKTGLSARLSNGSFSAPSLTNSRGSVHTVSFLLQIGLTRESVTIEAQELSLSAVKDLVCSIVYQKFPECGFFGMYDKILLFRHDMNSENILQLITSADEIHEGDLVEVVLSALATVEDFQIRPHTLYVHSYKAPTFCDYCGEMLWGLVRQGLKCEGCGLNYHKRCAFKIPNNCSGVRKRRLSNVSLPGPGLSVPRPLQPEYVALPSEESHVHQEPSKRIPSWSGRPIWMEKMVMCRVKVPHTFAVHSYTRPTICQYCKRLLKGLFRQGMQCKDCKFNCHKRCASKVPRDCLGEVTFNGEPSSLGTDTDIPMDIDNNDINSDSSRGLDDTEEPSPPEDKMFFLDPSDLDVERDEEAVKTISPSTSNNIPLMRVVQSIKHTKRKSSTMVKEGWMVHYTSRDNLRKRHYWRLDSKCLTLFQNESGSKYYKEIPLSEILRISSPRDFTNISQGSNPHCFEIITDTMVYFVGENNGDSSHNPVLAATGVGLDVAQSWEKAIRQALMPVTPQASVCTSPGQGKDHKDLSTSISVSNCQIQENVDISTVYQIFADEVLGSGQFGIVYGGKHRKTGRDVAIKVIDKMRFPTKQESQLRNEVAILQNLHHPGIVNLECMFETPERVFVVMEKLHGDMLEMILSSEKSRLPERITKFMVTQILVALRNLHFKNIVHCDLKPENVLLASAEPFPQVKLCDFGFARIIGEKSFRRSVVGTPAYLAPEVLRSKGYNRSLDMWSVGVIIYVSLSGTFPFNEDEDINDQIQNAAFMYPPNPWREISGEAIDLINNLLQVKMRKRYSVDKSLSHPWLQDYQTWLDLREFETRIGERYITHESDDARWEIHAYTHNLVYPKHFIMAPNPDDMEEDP

[12] = target: Mitogen-activated protein kinase 11 (Homo sapiens) (UniProt Q15759)
[13] = Compound concentration 100.0 nM
[14] = Compound concentration 1000.0 nM

Measured: residual activity

Mitogen-activated protein kinase 11 (Homo sapiens), sequence (Q15759 whole entry): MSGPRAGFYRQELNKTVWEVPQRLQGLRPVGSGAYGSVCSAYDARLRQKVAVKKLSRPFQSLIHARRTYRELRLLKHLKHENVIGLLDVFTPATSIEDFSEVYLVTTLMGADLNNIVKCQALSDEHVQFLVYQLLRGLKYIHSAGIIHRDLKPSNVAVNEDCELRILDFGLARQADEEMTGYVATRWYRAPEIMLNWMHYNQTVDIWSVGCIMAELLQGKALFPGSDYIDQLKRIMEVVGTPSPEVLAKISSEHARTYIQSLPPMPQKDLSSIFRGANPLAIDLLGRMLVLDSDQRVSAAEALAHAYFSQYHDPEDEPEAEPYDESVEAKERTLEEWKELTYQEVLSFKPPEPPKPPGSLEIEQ
Serine/threonine-protein kinase PAK 1 (Homo sapiens), sequence (Q13153 whole entry): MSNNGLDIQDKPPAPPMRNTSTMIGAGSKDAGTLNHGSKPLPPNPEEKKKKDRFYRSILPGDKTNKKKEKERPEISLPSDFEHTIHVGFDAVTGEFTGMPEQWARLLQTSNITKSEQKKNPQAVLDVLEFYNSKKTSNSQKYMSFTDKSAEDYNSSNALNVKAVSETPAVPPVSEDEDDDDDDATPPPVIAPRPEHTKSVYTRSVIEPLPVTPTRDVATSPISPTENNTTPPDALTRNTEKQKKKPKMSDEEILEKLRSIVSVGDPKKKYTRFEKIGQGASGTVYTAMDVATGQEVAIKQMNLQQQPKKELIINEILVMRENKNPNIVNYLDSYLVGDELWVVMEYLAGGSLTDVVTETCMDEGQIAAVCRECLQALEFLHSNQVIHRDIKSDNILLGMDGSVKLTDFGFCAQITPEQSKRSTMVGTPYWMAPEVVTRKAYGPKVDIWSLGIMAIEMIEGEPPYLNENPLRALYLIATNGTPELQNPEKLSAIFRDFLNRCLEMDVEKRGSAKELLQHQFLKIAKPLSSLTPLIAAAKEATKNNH
Calcium/calmodulin-dependent protein kinase type 1D (Homo sapiens), sequence (Q8IU85 whole entry, looked up): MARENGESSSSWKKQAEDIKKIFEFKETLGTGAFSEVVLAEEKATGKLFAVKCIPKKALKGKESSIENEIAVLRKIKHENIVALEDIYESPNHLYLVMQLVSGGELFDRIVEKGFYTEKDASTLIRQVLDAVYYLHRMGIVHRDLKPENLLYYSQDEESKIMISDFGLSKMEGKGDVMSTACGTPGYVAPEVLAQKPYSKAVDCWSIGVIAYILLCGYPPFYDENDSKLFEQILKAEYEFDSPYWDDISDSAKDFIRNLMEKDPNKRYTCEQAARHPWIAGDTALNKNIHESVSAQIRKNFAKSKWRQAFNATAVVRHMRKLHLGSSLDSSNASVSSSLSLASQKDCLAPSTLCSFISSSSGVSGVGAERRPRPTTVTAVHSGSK
Serine/threonine-protein kinase RIO3 (Homo sapiens), sequence (O14730 whole entry): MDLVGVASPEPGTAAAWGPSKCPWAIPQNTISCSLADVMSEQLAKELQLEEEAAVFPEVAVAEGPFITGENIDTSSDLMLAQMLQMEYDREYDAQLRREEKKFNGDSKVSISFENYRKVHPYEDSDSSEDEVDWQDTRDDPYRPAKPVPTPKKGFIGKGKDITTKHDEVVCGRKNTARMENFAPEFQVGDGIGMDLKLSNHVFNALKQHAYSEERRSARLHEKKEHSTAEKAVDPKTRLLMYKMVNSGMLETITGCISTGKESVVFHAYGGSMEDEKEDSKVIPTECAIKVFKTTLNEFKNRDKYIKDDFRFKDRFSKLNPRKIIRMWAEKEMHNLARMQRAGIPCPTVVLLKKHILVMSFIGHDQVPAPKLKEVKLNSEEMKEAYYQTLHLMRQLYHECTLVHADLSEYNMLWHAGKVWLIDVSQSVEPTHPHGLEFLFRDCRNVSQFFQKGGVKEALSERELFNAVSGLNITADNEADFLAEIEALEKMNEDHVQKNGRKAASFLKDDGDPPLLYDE
Serine/threonine-protein kinase MRCK gamma (Homo sapiens), sequence (Q6DT37 whole entry): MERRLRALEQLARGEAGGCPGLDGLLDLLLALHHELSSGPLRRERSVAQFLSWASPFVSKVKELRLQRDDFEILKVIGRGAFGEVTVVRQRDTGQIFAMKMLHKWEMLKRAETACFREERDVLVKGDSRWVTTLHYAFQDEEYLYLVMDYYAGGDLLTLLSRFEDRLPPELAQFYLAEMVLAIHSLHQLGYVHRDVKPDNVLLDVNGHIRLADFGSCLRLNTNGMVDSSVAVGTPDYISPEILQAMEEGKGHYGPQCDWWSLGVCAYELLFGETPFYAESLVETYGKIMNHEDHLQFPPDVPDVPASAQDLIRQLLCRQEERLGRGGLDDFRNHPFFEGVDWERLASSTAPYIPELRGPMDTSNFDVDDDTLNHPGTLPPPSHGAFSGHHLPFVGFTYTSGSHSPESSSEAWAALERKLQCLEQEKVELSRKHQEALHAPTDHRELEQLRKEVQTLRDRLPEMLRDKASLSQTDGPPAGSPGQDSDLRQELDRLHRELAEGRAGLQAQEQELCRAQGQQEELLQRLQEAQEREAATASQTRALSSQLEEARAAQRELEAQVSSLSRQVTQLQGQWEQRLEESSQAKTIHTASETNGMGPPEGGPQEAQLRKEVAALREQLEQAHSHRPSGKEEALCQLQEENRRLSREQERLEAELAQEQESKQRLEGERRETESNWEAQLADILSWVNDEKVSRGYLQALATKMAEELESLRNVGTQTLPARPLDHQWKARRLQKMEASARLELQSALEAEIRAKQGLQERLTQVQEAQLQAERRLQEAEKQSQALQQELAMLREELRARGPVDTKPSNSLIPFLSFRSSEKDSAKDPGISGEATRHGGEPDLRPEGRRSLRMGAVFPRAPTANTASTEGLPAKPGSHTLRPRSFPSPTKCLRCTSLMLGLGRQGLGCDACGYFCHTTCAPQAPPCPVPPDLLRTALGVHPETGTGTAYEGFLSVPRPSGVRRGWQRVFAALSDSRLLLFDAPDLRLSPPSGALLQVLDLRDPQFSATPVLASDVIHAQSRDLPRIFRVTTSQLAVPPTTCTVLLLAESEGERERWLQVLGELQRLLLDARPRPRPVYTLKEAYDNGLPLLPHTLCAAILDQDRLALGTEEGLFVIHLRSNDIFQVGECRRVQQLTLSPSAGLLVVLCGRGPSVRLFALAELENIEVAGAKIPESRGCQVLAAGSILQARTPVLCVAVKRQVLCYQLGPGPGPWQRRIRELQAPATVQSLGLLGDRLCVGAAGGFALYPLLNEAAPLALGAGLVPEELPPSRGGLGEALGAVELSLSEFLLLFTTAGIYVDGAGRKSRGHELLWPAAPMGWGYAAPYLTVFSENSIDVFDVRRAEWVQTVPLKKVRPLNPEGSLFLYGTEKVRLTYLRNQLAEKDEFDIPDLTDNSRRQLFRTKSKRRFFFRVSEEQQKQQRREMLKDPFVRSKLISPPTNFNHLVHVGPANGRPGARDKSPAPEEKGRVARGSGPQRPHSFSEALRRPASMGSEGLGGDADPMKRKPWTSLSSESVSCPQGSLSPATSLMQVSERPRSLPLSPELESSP
Serine/threonine-protein kinase 10 (Homo sapiens), sequence (O94804 whole entry, looked up): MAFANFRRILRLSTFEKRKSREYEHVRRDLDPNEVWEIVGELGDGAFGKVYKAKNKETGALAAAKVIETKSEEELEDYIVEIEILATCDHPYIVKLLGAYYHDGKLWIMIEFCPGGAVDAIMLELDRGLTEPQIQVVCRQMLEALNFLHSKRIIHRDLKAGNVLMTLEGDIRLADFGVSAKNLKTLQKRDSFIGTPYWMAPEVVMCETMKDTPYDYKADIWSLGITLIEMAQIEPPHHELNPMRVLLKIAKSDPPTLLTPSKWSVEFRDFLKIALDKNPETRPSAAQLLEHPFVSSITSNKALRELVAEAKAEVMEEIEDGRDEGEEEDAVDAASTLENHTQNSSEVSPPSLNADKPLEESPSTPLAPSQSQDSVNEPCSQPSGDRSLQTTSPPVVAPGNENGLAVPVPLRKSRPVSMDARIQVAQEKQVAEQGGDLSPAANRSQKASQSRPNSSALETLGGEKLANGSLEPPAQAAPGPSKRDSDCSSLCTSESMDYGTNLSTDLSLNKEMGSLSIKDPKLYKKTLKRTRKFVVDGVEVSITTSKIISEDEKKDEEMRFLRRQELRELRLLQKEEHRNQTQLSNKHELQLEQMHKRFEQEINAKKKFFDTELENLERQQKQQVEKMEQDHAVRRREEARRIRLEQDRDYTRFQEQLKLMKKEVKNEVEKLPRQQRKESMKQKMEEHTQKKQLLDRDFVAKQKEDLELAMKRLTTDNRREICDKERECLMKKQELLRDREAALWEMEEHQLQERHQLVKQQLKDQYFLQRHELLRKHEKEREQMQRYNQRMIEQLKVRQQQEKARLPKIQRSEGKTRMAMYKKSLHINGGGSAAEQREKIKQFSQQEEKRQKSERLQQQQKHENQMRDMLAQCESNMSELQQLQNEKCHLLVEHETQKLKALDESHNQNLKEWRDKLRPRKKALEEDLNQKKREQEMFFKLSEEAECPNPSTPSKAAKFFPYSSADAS
Mitogen-activated protein kinase 4 (Homo sapiens), sequence (P31152 whole entry): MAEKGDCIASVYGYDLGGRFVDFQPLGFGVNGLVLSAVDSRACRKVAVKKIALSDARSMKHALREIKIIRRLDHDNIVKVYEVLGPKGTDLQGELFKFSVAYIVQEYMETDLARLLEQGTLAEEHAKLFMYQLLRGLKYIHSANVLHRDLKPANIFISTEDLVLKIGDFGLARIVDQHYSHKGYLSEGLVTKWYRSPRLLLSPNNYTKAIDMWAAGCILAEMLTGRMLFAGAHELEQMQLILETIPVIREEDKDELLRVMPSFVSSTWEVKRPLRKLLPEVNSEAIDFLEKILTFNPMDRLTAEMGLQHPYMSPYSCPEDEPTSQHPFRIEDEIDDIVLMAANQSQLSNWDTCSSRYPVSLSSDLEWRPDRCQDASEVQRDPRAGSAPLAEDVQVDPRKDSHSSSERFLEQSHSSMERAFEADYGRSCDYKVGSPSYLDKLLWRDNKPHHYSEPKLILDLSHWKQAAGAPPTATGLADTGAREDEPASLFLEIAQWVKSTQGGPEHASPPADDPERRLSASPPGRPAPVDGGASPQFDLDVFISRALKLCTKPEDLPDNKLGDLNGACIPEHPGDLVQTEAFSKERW

C[C@@H]1CN(c2cc(-c3n[nH]c4ccc(OC5(C)CC5)cc34)ncn2)C[C@H](C)O1 [MLi-2]
inactive: [1]; [13] 100% | [2]; [13] 83% | [3]; [13] 83% | [4]; [13] 82% | [5]; [13] 97% | [6]; [13] 96% | [7]; [13] 100% | [8]; [13] 90% | [9]; [13] 100% | [10]; [13] 89% | [11]; [13] 82% | [12]; [13] 89%

C[C@@H]1CN(c2cc(-c3nn(C)c4ccc(OC5(C)CC5)cc34)ncn2)C[C@H](C)O1 [MLi-2-NC]
inactive: [1]; [14] 100% | [2]; [14] 91% | [3]; [14] 93% | [4]; [14] 95% | [5]; [14] 76% | [6]; [14] 100% | [7]; [14] 100% | [8]; [14] 57% | [9]; [14] 100% | [10]; [14] 100% | [11]; [14] 64% | [12]; [14] 88%
